Data as given in ChEMBL document CHEMBL3046635, “Synthesis and Herbicidal Activity of New Pyrazole-4-carboxamide Derivatives” (J Pestic Sci, 2004).
Activity calls are given as the source filed them.

Columns and labels:
[1] = tested on: Lindernia procumbens; assay: Pre-emergence herbicidal activity against Lindernia procumbens assessed as bleaching of stem/leaf parts; assay type: functional, organism-based
[2] = tested on: Echinochloa oryzicola; assay: Post-emergence herbicidal activity against Echinochloa oryzicola assessed as bleaching of stem/leaf parts; assay type: functional, organism-based; also: test concentration or dose not given here
[3] = tested on: Elatine triandra; assay: Pre-emergence herbicidal activity against Elatine triandra at 2000 g a.i/ha measured after 14 days; assay type: functional, organism-based
[4] = tested on: Elatine triandra; assay: Pre-emergence herbicidal activity against Elatine triandra assessed as bleaching of stem/leaf parts; assay type: functional, organism-based
[5] = tested on: Eleocharis acicularis; assay: Pre-emergence herbicidal activity against Eleocharis acicularis assessed as bleaching of stem/leaf parts; assay type: functional, organism-based
[6] = tested on: Lindernia procumbens; assay: Post-emergence herbicidal activity against Lindernia procumbens assessed as bleaching of stem/leaf parts; assay type: functional, organism-based; also: test concentration or dose not given here
[7] = tested on: Ammannia multiflora; assay: Post-emergence herbicidal activity against Ammannia multiflora assessed as bleaching of stem/leaf parts; assay type: functional, organism-based; also: test concentration or dose not given here
[8] = tested on: Rotala indica; assay: Pre-emergence herbicidal activity against Rotala indica at 2000 g a.i/ha measured after 14 days; assay type: functional, organism-based
[9] = tested on: Ammannia multiflora; assay: Pre-emergence herbicidal activity against Ammannia multiflora assessed as bleaching of stem/leaf parts; assay type: functional, organism-based
[10] = tested on: Rotala indica; assay: Post-emergence herbicidal activity against Rotala indica assessed as bleaching of stem/leaf parts; assay type: functional, organism-based; also: test concentration or dose not given here
[11] = tested on: Lindernia procumbens; assay: Pre-emergence herbicidal activity against Lindernia procumbens at 2000 g a.i/ha measured after 14 days; assay type: functional, organism-based
[12] = tested on: Ammannia multiflora; assay: Pre-emergence herbicidal activity against Ammannia multiflora at 2000 g a.i/ha measured after 14 days; assay type: functional, organism-based
[13] = tested on: Eleocharis acicularis; assay: Post-emergence herbicidal activity against Eleocharis acicularis assessed as bleaching of stem/leaf parts; assay type: functional, organism-based; also: test concentration or dose not given here
[14] = tested on: Schoenoplectiella juncoides; assay: Pre-emergence herbicidal activity against Schoenoplectiella juncoides at 2000 g a.i/ha measured after 14 days; assay type: functional, organism-based
[15] = tested on: Schoenoplectiella juncoides; assay: Post-emergence herbicidal activity against Schoenoplectiella juncoides assessed as bleaching of stem/leaf parts; assay type: functional, organism-based; also: test concentration or dose not given here
[16] = tested on: Cyperus difformis; assay: Post-emergence herbicidal activity against Cyperus difformis assessed as bleaching of stem/leaf parts; assay type: functional, organism-based; also: test concentration or dose not given here
[17] = tested on: Pontederia vaginalis; assay: Pre-emergence herbicidal activity against Monochoria vaginalis assessed as bleaching of stem/leaf parts; assay type: functional, organism-based
[18] = tested on: Cyperus difformis; assay: Pre-emergence herbicidal activity against Cyperus difformis assessed as bleaching of stem/leaf parts; assay type: functional, organism-based
[19] = tested on: Elatine triandra; assay: Post-emergence herbicidal activity against Elatine triandra assessed as bleaching of stem/leaf parts; assay type: functional, organism-based; also: test concentration or dose not given here
[20] = tested on: Pontederia vaginalis; assay: Post-emergence herbicidal activity against Monochoria vaginalis assessed as bleaching of stem/leaf parts; assay type: functional, organism-based; also: test concentration or dose not given here
[21] = tested on: Echinochloa oryzicola; assay: Pre-emergence herbicidal activity against Echinochloa oryzicola assessed as bleaching of stem/leaf parts; assay type: functional, organism-based
[22] = tested on: Eleocharis acicularis; assay: Pre-emergence herbicidal activity against Eleocharis acicularis at 2000 g a.i/ha measured after 14 days; assay type: functional, organism-based
[23] = tested on: Pontederia vaginalis; assay: Pre-emergence herbicidal activity against Monochoria vaginalis at 2000 g a.i/ha measured after 14 days; assay type: functional, organism-based
[24] = tested on: Cyperus difformis; assay: Pre-emergence herbicidal activity against Cyperus difformis at 2000 g a.i/ha measured after 14 days; assay type: functional, organism-based
[25] = tested on: Schoenoplectiella juncoides; assay: Pre-emergence herbicidal activity against Schoenoplectiella juncoides assessed as bleaching of stem/leaf parts; assay type: functional, organism-based
[26] = tested on: Echinochloa oryzicola; assay: Pre-emergence herbicidal activity against Echinochloa oryzicola at 2000 g a.i/ha measured after 14 days; assay type: functional, organism-based
[27] = tested on: Oryza sativa; assay: Phytotoxicity against Oryza sativa cv. Koshihikari (rice) at 2000 g a.i/ha measured after 14 days; assay type: organism-based; conditions: in vivo, 336 h
[28] = tested on: Rotala indica; assay: Pre-emergence herbicidal activity against Rotala indica assessed as bleaching of stem/leaf parts; assay type: functional, organism-based

## CCCN(CC)C(=O)c1cn(C)nc1OCc1ccc(C)cc1
[1]
  Activity: Active
[2]
  Activity: Active
[3]
  Activity: inactive
[4]
  Activity: Active
[5]
  Activity: Active
[6]
  Activity: Active
[7]
  Activity: Active
[8]
  Activity: inactive
[9]
  Activity: Active
[10]
  Activity: Active
[11]
  Activity: inactive
[12]
  Activity: inactive
[13]
  Activity: Active
[14]
  Activity: inactive
[15]
  Activity: Active
[16]
  Activity: Active
[17]
  Activity: Active
[18]
  Activity: Active
[19]
  Activity: Active
[20]
  Activity: Active
[21]
  Activity: Active
[22]
  Activity: inactive
[23]
  Activity: inactive
[24]
  Activity: inactive
[25]
  Activity: Active
[26]
  Activity: inactive
[27]
  Activity: Non-toxic
[28]
  Activity: Active

## CCCN(CC)C(=O)c1cn(C)nc1OCc1ccc(C(F)(F)F)cc1
[1]
  Activity: Active
[2]
  Activity: Active
[3]
  Activity: Active
[4]
  Activity: Active
[5]
  Activity: Active
[6]
  Activity: Active
[7]
  Activity: Active
[8]
  Activity: Active
[9]
  Activity: Active
[10]
  Activity: Active
[11]
  Activity: Active
[12]
  Activity: Active
[13]
  Activity: Active
[14]
  Activity: Active
[15]
  Activity: Active
[16]
  Activity: Active
[17]
  Activity: Active
[18]
  Activity: Active
[19]
  Activity: Active
[20]
  Activity: Active
[21]
  Activity: Active
[22]
  Activity: inactive
[23]
  Activity: Active
[24]
  Activity: inactive
[25]
  Activity: Active
[26]
  Activity: inactive
[27]
  Activity: Non-toxic
[28]
  Activity: Active

## CCCN(CC)C(=O)c1cn(C)nc1OC(C)c1cccc(Br)c1 (configuration not stated)
[1]
  Activity: Active
[2]
  Activity: Active
[3]
  Activity: inactive
[4]
  Activity: Active
[5]
  Activity: Active
[6]
  Activity: Active
[7]
  Activity: Active
[8]
  Activity: inactive
[9]
  Activity: Active
[10]
  Activity: Active
[11]
  Activity: inactive
[12]
  Activity: inactive
[13]
  Activity: Active
[14]
  Activity: inactive
[15]
  Activity: Active
[16]
  Activity: Active
[17]
  Activity: Active
[18]
  Activity: Active
[19]
  Activity: Active
[20]
  Activity: Active
[21]
  Activity: Active
[22]
  Activity: inactive
[23]
  Activity: inactive
[24]
  Activity: inactive
[25]
  Activity: Active
[26]
  Activity: inactive
[27]
  Activity: Non-toxic
[28]
  Activity: Active

## CCCN(CC)C(=O)c1cn(C)nc1OC
[1]
  Activity: Active
[2]
  Activity: Active
[3]
  Activity: inactive
[4]
  Activity: Active
[5]
  Activity: Active
[6]
  Activity: Active
[7]
  Activity: Active
[8]
  Activity: inactive
[9]
  Activity: Active
[10]
  Activity: Active
[11]
  Activity: inactive
[12]
  Activity: inactive
[13]
  Activity: Active
[14]
  Activity: inactive
[15]
  Activity: Active
[16]
  Activity: Active
[17]
  Activity: Active
[18]
  Activity: Active
[19]
  Activity: Active
[20]
  Activity: Active
[21]
  Activity: Active
[22]
  Activity: inactive
[23]
  Activity: inactive
[24]
  Activity: inactive
[25]
  Activity: Active
[26]
  Activity: inactive
[27]
  Activity: Non-toxic
[28]
  Activity: Active
